Here are results for one compound from publication PMC9867837 (Cancer letters, 2022).

One series deals with MDA-MB-231 cells. Kind of series: Clonogenic survival assay. In kind it is cell-based, human. Conditions: 0.3–2 μM H182, treated once. As for the experimental part:
These studies were performed as previously reported. Details are presented in Supplementary Information, “Methods”.
These studies were performed as previously reported . For the clonogenic survival assay, briefly, cells were seeded as single-cell (500 cells per well) in 6 -well plates, then untreated (DMSO control) or treated once the following day with H182 and allowed to grow until large colonies were visible, which were stained with crystal violet for 4 h and imaged with a FluorChem imaging system (Protein Simple, Santa Clara, CA).
For the soft-agar assay, briefly, each well contained a bottom layer of 1 ml of 1% agarose in complete DMEM and a top layer of 1 ml of 0.5% agarose in complete DMEM containing 500 cells. After the upper agar layer containing cells solidified, 1 ml culture medium containing H182 (0-2 µM) or DMSO (control) was overlaid, and the cultures were maintained at 37 °C in the incubator, with the medium replacement every 3-4 days with fresh medium that contains the inhibitor or not. Cells were allowed to culture for 3-4 weeks until large colonies were visible under microscope. The colonies were stained with crystal violet and […]
1.2.8. Confocal microscopy studies
4 cells in 1 ml) in logarithmic
These studies were performed as previously reported. […]

The next series has as its target T1, wtpYStat3 (Homo sapiens, UniProt P40763).
T1 construct: made in house; host or cells: E. coli BL21(DE3) TKB1 (inducible tyrosine kinase)
The series can be described thus: EMSA with purified wild-type pYStat3. Conditions: 3 μM H182, 30 min. Format: biochemical. An excerpt: This construct was used to generate the mutants, Stat3C328A, Stat3C426A, Stat3C468A, and Stat3C542S, as described in detail in Supplementary Information “Methods”.
The expression of un-phosphorylated and tyrosine phosphorylated His-tagged recombinant wtStat3 and mutant Stat3 proteins in BL21 (DE3) bacterial cells is described in detail in Supplementary Information “Methods”.
Given the MS data, we conducted site-directed mutagenesis analysis for the effects of Cys mutations (Cys-to-Ala or Cys-to-Ser mutations) on the inhibitory activities or potencies of the compounds. […]
In another case, the nuclear extract was pre-incubated with the radiolabeled probe for 30 min at 30 °C prior to incubation with increasing concentration of H182 at room temperature for 30 min and subjecting to EMSA analysis. Bands corresponding to Stats DNA- binding activities were scanned and quantified using ImageJ and plotted as a percentage of control (vehicle) against the concentration of the inhibitor, from which the IC50 values were derived . […]
These studies were performed as previously reported using the v-Src -transformed NIH3T3/v-Src fibroblasts [1 -5] . […] Luciferase activity was normalized to total protein concentration of cell lysate, which was determined by Bradford assay (Bio-Rad, Hercules, CA) . […]
Background: A gel shift assay detects complexes by their altered migration in electrophoresis.

In a further series the target is T2, CYP2D6 (Homo sapiens, UniProt P10635).
T2 construct: Eurofins-CEREP (contract research organisation that ran the assay)
T2 sequence (P10635 whole entry, species assumed): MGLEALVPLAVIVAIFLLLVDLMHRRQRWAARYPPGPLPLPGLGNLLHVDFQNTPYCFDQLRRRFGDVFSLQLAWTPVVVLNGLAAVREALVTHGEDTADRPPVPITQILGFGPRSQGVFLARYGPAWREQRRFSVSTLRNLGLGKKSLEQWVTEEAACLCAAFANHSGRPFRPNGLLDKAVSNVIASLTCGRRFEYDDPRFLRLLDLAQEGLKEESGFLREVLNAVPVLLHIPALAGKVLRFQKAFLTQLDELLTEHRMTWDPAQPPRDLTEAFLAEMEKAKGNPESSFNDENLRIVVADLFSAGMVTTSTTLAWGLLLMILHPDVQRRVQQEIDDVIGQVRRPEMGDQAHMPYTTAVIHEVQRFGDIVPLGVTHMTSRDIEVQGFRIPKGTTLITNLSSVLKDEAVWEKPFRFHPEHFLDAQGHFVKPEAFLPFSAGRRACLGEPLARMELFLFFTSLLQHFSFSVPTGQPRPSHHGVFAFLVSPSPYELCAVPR
The series can be described thus: CYP inhibition, CYP2D6. In kind it is in vitro ADME. Conditions: read-out: CYP Inhibition CYP2D6 % Inh at 10 μM. As for the experimental part:
The in vivo activity of a compound is influenced by its overall bioavailability, which is also driven by parameters, such as solubility, permeability, and metabolism. […] These values are all above the industry cut-off of 60 μg/ml. […] It has CLint in human hepatocytes of 16 μL/min/10^6 cells, which falls into moderate stability range [43].

T1 sequence (P40763 127-711): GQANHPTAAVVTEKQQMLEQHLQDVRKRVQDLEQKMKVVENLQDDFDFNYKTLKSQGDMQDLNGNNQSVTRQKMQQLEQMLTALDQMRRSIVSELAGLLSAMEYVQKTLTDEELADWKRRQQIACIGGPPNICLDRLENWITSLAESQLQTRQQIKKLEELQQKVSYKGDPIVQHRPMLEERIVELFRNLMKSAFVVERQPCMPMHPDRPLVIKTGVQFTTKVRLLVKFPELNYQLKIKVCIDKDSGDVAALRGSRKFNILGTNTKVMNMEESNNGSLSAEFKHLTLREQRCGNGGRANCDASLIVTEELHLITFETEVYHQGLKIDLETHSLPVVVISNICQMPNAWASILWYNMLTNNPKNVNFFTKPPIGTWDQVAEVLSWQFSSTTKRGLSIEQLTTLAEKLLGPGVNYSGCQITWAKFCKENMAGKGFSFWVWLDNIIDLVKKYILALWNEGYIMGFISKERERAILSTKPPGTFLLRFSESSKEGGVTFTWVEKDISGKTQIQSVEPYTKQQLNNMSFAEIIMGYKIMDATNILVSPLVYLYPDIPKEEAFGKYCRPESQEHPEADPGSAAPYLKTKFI

As for `O=C([C@H]1CCN1S(=O)(=O)c1c(F)c(F)c(F)c(F)c1F)N(Cc1ccc(C2CCCCC2)cn1)c1ccc2c(=O)[nH]ncc2c1` [Compound H182], the “Effect on anchorage-dependent colony formation” value in the series with MDA-MB-231 cells was “potently and dose-dependently inhibited”. Moreover, the “Effect on DNA-binding activity of wtpYStat3” value at wtpYStat3 was “strong inhibition”. Further, the inhibition (as a rule, the change of the read-out against control, counted positive when it falls) at 10 µM at CYP2D6 was 9%.
